Test results from patent US20220218826A1, “COMPOSITION FOR TOPICAL USE FOR PHOTODYNAMIC THERAPY” (UNIVERSIDAD DE LA FRONTERA, priority 2019, published 2022).

Experiments:
[1] = system: MAL-PDT-resistant HSC-1 cells; experiment: MTT cell viability after MAL-PDT with EGCG and/or EDTA as adjuvants
Experimental: The in vitro effect of EGCG and EDTA separately as adjuvants of MAL-PDT was assessed HSC-1 cells derived from squamous skin carcinoma were used. Previously, these cells received PDT cycles, in order to select those that are resistant to PDT. Therefore, the model used corresponds to MAL-PDT-resistant HSC-1 cells.
The in vitro photodynamic conventional treatment consisted of incubating these cells with MAL 150 mg/g (photosensitiser) for 4 hours in the dark and after radiating them with 630 nm red light, with fluence of 4 J/cm^2. Cell viability was assessed 24 hours later by the MTT assay.
Subsequently, this protocol was carried out in the same way in these cells, only with the following modification: when adding MAL, different concentrations of EDTA were added (0.5 mg/g, 1 mg/g, 1.5 mg/g, and 2 mg/g) or EGCG (0.2 mg/g, 0.4 mg/g, 0.6 mg/g, 0.8 mg/g). The MAL concentration of 150 mg/g was kept in all tests and experiments with irradiation (light) fluency same to the control at 4 J/cm^2, or without radiation, were carried out.

[2] = system: PDT-resistant HSC-1 cells; experiment: Detection of protoporphyrin IX (PpIX) by flow cytometry; assay type: cell-based; details: 4 hours in the dark
Experimental: For this, PDT-resistant cells, obtained as stated in example 1, were incubated with 150 mg/g MAL, plus EGCG (0.1 mg/g, 0.2 mg/g, 0.4 mg/g) or EDTA (1 mg/g, 2 mg/g, 3 mg/g) for 4 hours in the dark. Subsequently, the PpIX content in resistant cells was detected by flow cytometry, since PpIX is a fluorescent compound.

[3] = system: PDT-resistant HSC-1 cells; experiment: Detection of reactive oxygen species (ROS) with Muse Oxidative Stress Kit; assay type: cell-based; details: all assessed EGCG concentrations (0.1, 0.2, 0.4 mg/g) + MAL 150 mg/g, 4 hours, red light irradiation
Experimental: Given that in PDT, it is finally the reactive oxygen substances that cause cell damage and death, the production of these compounds was directly assessed. The same model as in example 3 was used, at the same EGCG concentrations stated in FIG. 3A, in order to assess the production of ROS generated in MAL-PDT. Following the previous methodology, after incubating the cells for 4 hours, these received red light irradiation. For ROS detection, these were incubated with a probe (Muse™ Oxidative Stress Kit|MCH100111—Merck Millipore) for 30 minutes and was assessed in a cell analyzer.

O=C(O)CN(CCN(CC(=O)O)CC(=O)O)CC(=O)O [EDTA, ethylenediaminetetraacetic acid]
effect of EDTA in MAL-PDT on viability ([1]; EDTA, only at 2 mg/g, + MAL 150 mg/g, light 4 J/cm^2): significant
population that contained PpIX ([2]; MAL 150 mg/g plus EDTA (1, 2, 3 mg/g)): ≤ 13%

O=C(O[C@@H]1Cc2c(O)cc(O)cc2O[C@@H]1c1cc(O)c(O)c(O)c1)c1cc(O)c(O)c(O)c1 [EGCG, epigallocatechin galate]
survival rate ([1]; EGCG from 0.4 mg/g + MAL 150 mg/g, light 4 J/cm^2): 0
ROS concentration relative to the control [3]: doubled or even tripled
population that contained PpIX ([2]; MAL 150 mg/g plus EGCG (0.1, 0.2, 0.4 mg/g)): ≤ 18%

COC(=O)CCC(=O)CN [MAL, methyl aminolevulinate]
HSC-1 resistant cells survived PDT ([1]; control MAL-PDT: MAL 150 mg/g, 4 hours in the dark, 630 nm red light, 4 J/cm^2, MTT 24 hours later): ~50%
population that contained PpIX ([2]; MAL 150 mg/g alone): 5%
